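These data come from cells grown in 96-well plates and exposed to compound for 48 hours at five concentrations. GI50: concentration for 50% inhibition of growth.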 The source made the active and inactive calls. No stated cut-off is given here; in the data, active = GI50 up to about 1.1 µM and inactive = higher.
Columns and labels:
Experiment in all cases: DTP human tumour cell line panel, 48 h
U-251 = system: U-251
MOLT-4 = system: MOLT-4
KM12 = system: KM12
CAKI-1 = system: CAKI-1
A549 = system: A549
Malme-3M = system: Malme-3M
Hs-578T = system: Hs-578T
HCT-15 = system: HCT-15
SK-MEL-2 = system: SK-MEL-2
SNB-75 = system: SNB-75
MDA-MB-435 = system: MDA-MB-435
RXF 393 = system: RXF 393
M14 = system: M14
OVCAR-5 = system: OVCAR-5
T47D = system: T47D
UO-31 = system: UO-31
SF-268 = system: SF-268
CCRF-CEM = system: CCRF-CEM
OVCAR-4 = system: OVCAR-4
RPMI-8226 = system: RPMI-8226

SMILES: CC(CO)(CO)Nc1ncnc2ccccc12
- GI50 (U-251): > 100 µM (inactive)
- GI50 (MOLT-4): > 100 µM (inactive)
- GI50 (KM12): > 100 µM (inactive)
- GI50 (CAKI-1): > 100 µM (inactive)
- GI50 (A549): > 100 µM (inactive)
- GI50 (Malme-3M): > 100 µM (inactive)
- GI50 (Hs-578T): > 100 µM (inactive)
- GI50 (HCT-15): > 100 µM
- GI50 (SK-MEL-2): > 100 µM (inactive)
- GI50 (SNB-75): > 100 µM (inactive)
- GI50 (MDA-MB-435): > 100 µM (inactive)
- GI50 (RXF 393): > 100 µM (inactive)
- GI50 (M14): > 100 µM (inactive)
- GI50 (OVCAR-5): > 100 µM (inactive)
- GI50 (T47D): > 100 µM (inactive)
- GI50 (UO-31): > 100 µM (inactive)
- GI50 (SF-268): > 100 µM (inactive)
- GI50 (CCRF-CEM): > 100 µM (inactive)
- GI50 (OVCAR-4): > 100 µM (inactive)

SMILES: COc1ccc2c(c1)c1c(C)c3cnccc3c(C)c1n2CCCN
- GI50 (A549): 0.296 µM (active)
- GI50 (Malme-3M): 0.681 µM (active)
- GI50 (Hs-578T): 0.277 µM (active)
- GI50 (HCT-15): 0.0925 µM
- GI50 (SK-MEL-2): 0.401 µM (active)
- GI50 (SNB-75): 0.378 µM (active)
- GI50 (MDA-MB-435): 0.0502 µM (active)
- GI50 (RXF 393): 0.05 µM (active)
- GI50 (M14): 0.145 µM (active)
- GI50 (OVCAR-5): 0.431 µM (active)
- GI50 (T47D): 0.284 µM (active)
- GI50 (UO-31): 0.524 µM (active)
- GI50 (OVCAR-4): 0.0541 µM (active)

SMILES: COc1nc2ccc(COc3ccc(C(=O)NC(CCC(=O)O)C(=O)O)cc3)cc2nc1OC (centres undefined)
- GI50 (U-251): > 10 µM (inactive)
- GI50 (MOLT-4): > 10 µM (inactive)
- GI50 (KM12): > 10 µM (inactive)
- GI50 (CAKI-1): > 10 µM (inactive)
- GI50 (A549): > 10 µM (inactive)
- GI50 (Hs-578T): > 10 µM (inactive)
- GI50 (HCT-15): > 10 µM
- GI50 (SK-MEL-2): > 10 µM (inactive)
- GI50 (SNB-75): > 10 µM (inactive)
- GI50 (MDA-MB-435): > 10 µM (inactive)
- GI50 (RXF 393): > 10 µM (inactive)
- GI50 (M14): > 10 µM (inactive)
- GI50 (OVCAR-5): > 10 µM (inactive)
- GI50 (RPMI-8226): > 10 µM (inactive)
- GI50 (T47D): > 10 µM (inactive)
- GI50 (UO-31): > 10 µM (inactive)
- GI50 (SF-268): > 10 µM (inactive)
- GI50 (CCRF-CEM): > 10 µM (inactive)
- GI50 (OVCAR-4): > 10 µM (inactive)

SMILES: O=C1OC(c2ccccc2)=N/C1=C\c1ccc([N+](=O)[O-])cc1
- GI50 (U-251): 19.7 µM (inactive)
- GI50 (MOLT-4): 15.1 µM (inactive)
- GI50 (KM12): 54.8 µM (inactive)
- GI50 (CAKI-1): 30.7 µM (inactive)
- GI50 (A549): 82 µM (inactive)
- GI50 (Hs-578T): 24.1 µM (inactive)
- GI50 (HCT-15): > 100 µM
- GI50 (SK-MEL-2): 27.4 µM (inactive)
- GI50 (SNB-75): 22.9 µM (inactive)
- GI50 (MDA-MB-435): > 100 µM (inactive)
- GI50 (RXF 393): 32.9 µM (inactive)
- GI50 (M14): > 100 µM (inactive)
- GI50 (OVCAR-5): > 100 µM (inactive)
- GI50 (RPMI-8226): 30.2 µM (inactive)
- GI50 (T47D): 22.3 µM (inactive)
- GI50 (UO-31): 50.7 µM (inactive)
- GI50 (SF-268): 32.8 µM (inactive)
- GI50 (CCRF-CEM): 13.8 µM (inactive)
- GI50 (OVCAR-4): 34.5 µM (inactive)

SMILES: CCOC(=O)C1(C/C=C\CBr)CCCCCCC1=O (centres undefined)
- GI50 (U-251): > 100 µM (inactive)
- GI50 (MOLT-4): > 100 µM (inactive)
- GI50 (KM12): > 100 µM (inactive)
- GI50 (CAKI-1): > 100 µM (inactive)
- GI50 (A549): > 100 µM (inactive)
- GI50 (Malme-3M): > 100 µM (inactive)
- GI50 (Hs-578T): > 100 µM (inactive)
- GI50 (HCT-15): > 100 µM
- GI50 (SK-MEL-2): > 100 µM (inactive)
- GI50 (SNB-75): > 100 µM (inactive)
- GI50 (MDA-MB-435): > 100 µM (inactive)
- GI50 (RXF 393): > 100 µM (inactive)
- GI50 (M14): > 100 µM (inactive)
- GI50 (OVCAR-5): > 100 µM (inactive)
- GI50 (T47D): > 100 µM (inactive)
- GI50 (UO-31): > 100 µM (inactive)
- GI50 (SF-268): > 100 µM (inactive)
- GI50 (CCRF-CEM): > 100 µM (inactive)
- GI50 (OVCAR-4): > 100 µM (inactive)

SMILES: CCOC(=O)/C=C/C1(CCOC(C)=O)CCCCC1
- GI50 (U-251): > 10 µM (inactive)
- GI50 (MOLT-4): > 10 µM (inactive)
- GI50 (KM12): > 10 µM (inactive)
- GI50 (CAKI-1): > 10 µM (inactive)
- GI50 (A549): > 10 µM (inactive)
- GI50 (Hs-578T): > 10 µM (inactive)
- GI50 (HCT-15): > 10 µM
- GI50 (SK-MEL-2): > 10 µM (inactive)
- GI50 (SNB-75): > 10 µM (inactive)
- GI50 (MDA-MB-435): > 10 µM (inactive)
- GI50 (RXF 393): > 10 µM (inactive)
- GI50 (M14): > 10 µM (inactive)
- GI50 (OVCAR-5): > 10 µM (inactive)
- GI50 (RPMI-8226): > 10 µM (inactive)
- GI50 (T47D): > 10 µM (inactive)
- GI50 (UO-31): > 10 µM (inactive)
- GI50 (SF-268): > 10 µM (inactive)
- GI50 (CCRF-CEM): > 10 µM (inactive)
- GI50 (OVCAR-4): > 10 µM (inactive)

SMILES: OCc1cc2c(ccc3sc4ccc5sc6ccc7ncccc7c6c5c4c32)s1
- GI50 (U-251): 28.4 µM (inactive)
- GI50 (MOLT-4): 11.5 µM (inactive)
- GI50 (KM12): 6.47 µM (inactive)
- GI50 (CAKI-1): 10.6 µM (inactive)
- GI50 (A549): 11.4 µM (inactive)
- GI50 (Hs-578T): 8.53 µM (inactive)
- GI50 (HCT-15): 10.7 µM
- GI50 (SK-MEL-2): 14.5 µM (inactive)
- GI50 (SNB-75): 3.89 µM (inactive)
- GI50 (MDA-MB-435): 24.3 µM (inactive)
- GI50 (RXF 393): 11.7 µM (inactive)
- GI50 (OVCAR-5): 15.3 µM (inactive)
- GI50 (RPMI-8226): 13.6 µM (inactive)
- GI50 (T47D): 8.22 µM (inactive)
- GI50 (UO-31): 2.11 µM (inactive)
- GI50 (CCRF-CEM): 19.7 µM (inactive)
- GI50 (OVCAR-4): 25.2 µM (inactive)

SMILES: CC(=O)Nc1ccc2[nH]c(C(=O)N3CC(CCl)c4c3cc([N+](=O)[O-])c3ccccc43)cc2c1 (centres undefined)
- GI50 (U-251): 3.48 µM (inactive)
- GI50 (MOLT-4): 0.889 µM (active)
- GI50 (KM12): 1.73 µM (inactive)
- GI50 (CAKI-1): 3.93 µM (inactive)
- GI50 (A549): 0.393 µM (active)
- GI50 (Hs-578T): 4.26 µM (inactive)
- GI50 (HCT-15): 6.47 µM
- GI50 (SK-MEL-2): 13.8 µM (inactive)
- GI50 (SNB-75): 3.4 µM (inactive)
- GI50 (MDA-MB-435): 14.7 µM (inactive)
- GI50 (RXF 393): 4.74 µM (inactive)
- GI50 (M14): 24.2 µM (inactive)
- GI50 (OVCAR-5): 13.1 µM (inactive)
- GI50 (RPMI-8226): 1.02 µM (active)
- GI50 (T47D): 2.77 µM (inactive)
- GI50 (UO-31): 0.805 µM (active)
- GI50 (SF-268): 1.98 µM (inactive)
- GI50 (CCRF-CEM): 0.879 µM (active)
- GI50 (OVCAR-4): > 36.3 µM (inactive)

SMILES: NC(=O)C1CCCN1C(=O)C(Cc1c[nH]cn1)NC(=O)C1CCCC1 (centres undefined)
- GI50 (U-251): > 100 µM (inactive)
- GI50 (MOLT-4): > 100 µM (inactive)
- GI50 (KM12): > 100 µM (inactive)
- GI50 (CAKI-1): > 100 µM (inactive)
- GI50 (A549): > 100 µM (inactive)
- GI50 (Malme-3M): > 100 µM (inactive)
- GI50 (Hs-578T): > 100 µM (inactive)
- GI50 (HCT-15): > 100 µM
- GI50 (SNB-75): > 100 µM (inactive)
- GI50 (MDA-MB-435): > 100 µM (inactive)
- GI50 (RXF 393): > 100 µM (inactive)
- GI50 (M14): > 100 µM (inactive)
- GI50 (OVCAR-5): > 100 µM (inactive)
- GI50 (RPMI-8226): > 100 µM (inactive)
- GI50 (T47D): > 100 µM (inactive)
- GI50 (UO-31): > 100 µM (inactive)
- GI50 (CCRF-CEM): > 100 µM (inactive)
- GI50 (OVCAR-4): > 100 µM (inactive)

SMILES: O=C(OCc1c(-c2ccccc2)nn(-c2ccccc2)c1COC(=O)Oc1ccccc1)Oc1ccccc1
- GI50 (U-251): > 100 µM (inactive)
- GI50 (MOLT-4): > 100 µM (inactive)
- GI50 (KM12): > 100 µM (inactive)
- GI50 (CAKI-1): > 100 µM (inactive)
- GI50 (A549): > 100 µM (inactive)
- GI50 (Malme-3M): > 100 µM (inactive)
- GI50 (Hs-578T): > 100 µM (inactive)
- GI50 (HCT-15): > 100 µM
- GI50 (SNB-75): > 100 µM (inactive)
- GI50 (MDA-MB-435): > 100 µM (inactive)
- GI50 (RXF 393): > 100 µM (inactive)
- GI50 (M14): > 100 µM (inactive)
- GI50 (OVCAR-5): > 100 µM (inactive)
- GI50 (RPMI-8226): > 100 µM (inactive)
- GI50 (T47D): > 100 µM (inactive)
- GI50 (SF-268): > 100 µM (inactive)
- GI50 (CCRF-CEM): > 100 µM (inactive)
- GI50 (OVCAR-4): > 100 µM (inactive)

SMILES: O=Cc1ccc(-c2cccc([N+](=O)[O-])c2)s1
- GI50 (U-251): 45.4 µM (inactive)
- GI50 (MOLT-4): 41.2 µM (inactive)
- GI50 (KM12): > 100 µM (inactive)
- GI50 (CAKI-1): > 100 µM (inactive)
- GI50 (A549): > 100 µM (inactive)
- GI50 (Hs-578T): 53.6 µM (inactive)
- GI50 (HCT-15): > 100 µM
- GI50 (SK-MEL-2): > 100 µM (inactive)
- GI50 (SNB-75): 70.8 µM (inactive)
- GI50 (MDA-MB-435): > 100 µM (inactive)
- GI50 (RXF 393): 54.3 µM (inactive)
- GI50 (M14): > 100 µM (inactive)
- GI50 (OVCAR-5): > 100 µM (inactive)
- GI50 (RPMI-8226): 67 µM (inactive)
- GI50 (T47D): 86.5 µM (inactive)
- GI50 (UO-31): 65.8 µM (inactive)
- GI50 (SF-268): > 100 µM (inactive)
- GI50 (CCRF-CEM): 96.2 µM (inactive)
- GI50 (OVCAR-4): > 100 µM (inactive)

— ChEMBL document CHEMBL1201862, “PubChem BioAssay data set” (2004)
